# In patent US7803844B2, “Composition for preventing and/or treating bone disease, physiologically functional or health food containing thereof, and pharmaceutical containing thereof as active ingredients” (Erina Co. Inc., priority 2004, dated 2010):
# Key:
# [1] = test system: acid phosphatase; settings: cited from earlier work
# [2] = test system: M-CSF dependent cells derived from mice bone marrow cells; test: Pit formation assay of mature osteoclast; type: cell-based, mouse; settings: 10 μM, 1 day, calcium phosphate apatite coated plate
# Experimental: Alternatively, the bone marrow cells were obtained form the shanks and femurs from ddy mice of 6 to 9 week age, similarly to the methods employed in the example 3.
# Obtained bone marrow cells were suspended in 10% FBS-MEM including 100 U/mL of sodium penicillin G, 100 μg/mL of streptomycin sulfate, 50 ng/mL of M-CSF, and 1 ng/mL of TGF-β. Then, the suspension was plated at 0.85×10^6 cells/0.1 mL/well into the 16 well multi slide plate (BioCoat Osteologic Bone Cell Culture System; BD Biosciences, Cat. No.: 354609) which was coated by calcium phosphate apatite, and incubated under the presence of 5% CO2, at 37° C.
# After three days incubation, the medium was exchanged to that including 50 ng/mL of M-CSF and 100 ng/mL of osteoclast differentiation factor (ODF/RANKL). Subsequently, the plates were incubated under the same condition until the formation of actin ring, the osteoclast activated structure, was confirmed. After the actin ring was formed, honokiol prepared as the same concentration used in the example 1 is added, and incubated further one day. To the control group, the solvent without honokiol was added.
# After 1 day incubation from the addition of honokiol, the medium in the well was discarded, and the plate was washed by using phosphate buffered saline (PBS); then, 0.1 mL of 0.1 M NaOH is added to every well to dissolve the cells in it. […]
# [3] = test system: M-CSF dependent cells derived from mice bone marrow cells (BMM); test: Inhibition assay II of the early stage differentiation of osteoclast (TRAP activity); type: cell-based, mouse; settings: mouse bone marrow M-CSF dependent cells, 50 ng/mL RANKL
# Experimental: Mouse bone marrow cells were obtained from femurs and shanks of male ddy mice from 6 to 9 week age (Chubu Kagaku Shizai Co. Ltd.)
# From 6 to 9 week ages of ddy mice, the femurs and shanks were excised. The bone row cells were extruded from these bones by using a syringe with 22 G×1 and ¼ gauge needle to obtain.
# Obtained bone marrow cells were suspended in 10% FBS-MEM supplemented with 100 μg/mL of sodium streptomycin, 100 U/mL of sodium penicillin G, 50 ng/mL of M-CSF, and 1 ng/mL of TGF-β, and then inoculated to each well of the 96-well microplate at the cell concentration of 1×10^6 cells/0.1 mL/well. Then, the plates were incubated under the presence of 5% CO2, at 37° C.
# After 3 days incubation, the culture medium was exchanged to that including 50 ng/mL of M-CSF and 50 ng/mL of osteoclast differentiation factor (DF/RANKL), simultaneously honokiol prepared as the same concentration as used in the example 1 was added. The medium of the control group was exchanged that including M-CSF and ODF/RANKL, but no honokiol. The plates were further incubated under the condition of the presence of 5% CO2, at 37° C.
# After 1.5 days from the medium exchange, tartrate resistant acid phosphatase activity, the early stage differentiation marker, was measured. Medium in each well was discarded and washed plate with PBS, the cells in the well was fixed for 15 minutes by using 10% HCHO/PBS. Furthermore, the cells were fixed by using ethanol-acetone (1:1) mixture. After fixation, the fixed mixture was discarded and dried at room temperature. After drying, tartrate resistant acid phosphatase (TRAP) of the cells in each well was measured and stained similarly to those in the example 1.
# The inhibition assay of the early stage differentiation of osteoclast was carried out similarly to the described above, except honokiol used in the above mentioned (3-2) was substituted to magnolol, and its concentration was from 20 to 60 μM.
# [4] = test system: MC3T3-E1 cells; test: Cell viability after osteoblast differentiation induction (MTT assay); type: cell-based, mice; settings: 30 μM, 7 days
# Experimental: As an evaluation method for the effect against the differentiation of osteoblast, MC3T3-E1 cell osteoblast differentiation induction assay was used. In the assay, the activity of alkaline phosphatase (ALP), the early stage differentiation marker enzyme of osteoblast, was determined, and the staining utilizing the activity (ALP staining) was performed. Expression level of osteocalcin, which is the marker of the differentiated osteoblast, was determined by using the EIA kit described above. Furthermore, in order to know the cytotoxicity, the cell viability was determined by using MTT assay. MC3T3-E1 cells were plated into the wells of the 96-well microplate at the concentration of 4×10^3 cells/well, and incubated two days under the presence of 5% of CO2, at 37° C. until cells became confluent in the well. […] The medium was exchanged every 3 or 4 days. In order to determine the cell viability, MC3T3-E1 cells were cultured for 7 days under the condition as described above. After that, MTT reagent was added into the well at the 1/10 volume of the medium in the well, and reacted for 1 hour at 37° C. Then, the medium was removed, and generated formazan was dissolved in DMSO; then its absorbance was measured by using microplate reader at the wave length of 570 nm (reference wave length was 630 nm).
# [5] = test system: MφRAW264 cells; test: Proliferated cell number counting assay (XTT cell viability)
# Experimental: As a non-RI method for determining cell proliferation and cell viability, color reaction by using XTT was employed. MφRAW264 cells were suspended in 10% FBS-MEM, and plated into the 96-well microplate at 0.4×10^4 cells/0.1 mL; then incubated for 1 day. Subsequently, 10% FBS-MEM solution of osteoclast differentiation factor (ODF/RANKL), 100 ng/mL, was added into 0.1 mL per well at final concentration of RANKL, 50 ng/mL. At the same time, honokiol solution at respective concentration was added into the wells. For the control wells, equal volume of methanol not including honokiol was added.
# After 3 days incubation, the proliferated cells were counted by using commercially available Cell Proliferation Kit II (Roche Diagnostics Inc., Cat. No. 1 465 015) to obtain the cell viability. The procedure was carried out according to the instruction manual attached, and brief summaries were as follows.
# XTT labeling reagent and electron coupling reagent included in the kit were mixed at the ratio of 50:1, and 50 μL of mixture was added per 0.1 mL of medium in each well; then reacted for 4 hours at 37° C. After the termination of the reaction, absorbance at 492 nm of the wave length was measured by using ELISA plate reader (Dainippon Pharma Co.), wherein the reference wave length was 690 nm.
# In the above-mentioned (2-2), the same cell proliferation counting assay II was performed instead of honokiol to magnolol and their concentration used was at the range from 20 to 60 μM.
# [6] = test system: MC3T3-E1 cells; test: Osteoblast differentiation induction assay, osteocalcin concentration (EIA); type: cell-based, mice; settings: 3 to 30 μM, 14 days, culture supernatant
# Experimental: As an evaluation method for the effect against the differentiation of osteoblast, MC3T3-E1 cell osteoblast differentiation induction assay was used. In the assay, the activity of alkaline phosphatase (ALP), the early stage differentiation marker enzyme of osteoblast, was determined, and the staining utilizing the activity (ALP staining) was performed. Expression level of osteocalcin, which is the marker of the differentiated osteoblast, was determined by using the EIA kit described above. Furthermore, in order to know the cytotoxicity, the cell viability was determined by using MTT assay. MC3T3-E1 cells were plated into the wells of the 96-well microplate at the concentration of 4×10^3 cells/well, and incubated two days under the presence of 5% of CO2, at 37° C. until cells became confluent in the well. […] The medium was exchanged every 3 or 4 days. In order to determine the concentration of osteocalcin, culture supernatant of MC3T3-E1 cells cultured for 14 days under the above-mentioned conditions was used. Amount of osteocalcin in the culture supernatant was determined according to the procedure written on an instruction manual attached to the EIA kit.
# [7] = test system: M-CSF dependent cells derived from mice bone marrow cells (BMM); test: Cell proliferation counting assay (XTT) in bone marrow derived cells
# Experimental: Alternatively, the cell proliferation counting assay was performed as the same as that in the example 1, the cell viability was obtained. In FIG. 2A, the cell viability was shown as white columns.
smiles,measurement,setting,value
C=CCc1ccc(O)c(-c2ccc(O)c(CC=C)c2)c1 [honokiol],inhibition activity of acid phosphatase,[1],has the inhibition activity of the acid phosphatase
same,pit formation,[2],significantly decreased
same,IC50,"[3]; Bone marrow cell, read-out: IC50, inhibition of differentiation from M-CSF dependent bone marrow cells to osteoclast induced by RANKL",10 µM
same,TRAP activity (control %),"[3]; 1.5 days, honokiol 3-30 μM, magnolol 20-60 μM","inhibited, depending on the dose"
same,cell viability of MC3T3-E1 cells,[4],slightly decreased
same,non-specific cytotoxicity to MφRAW264 cells,[5],does not show non-specific cytotoxicity
same,expression level of osteocalcin,[6],enhanced
same,non-specific cytotoxicity (XTT assay),[7],did not show non-specific cytotoxicity
